Test results reported in patent US10940155B2, “Oral quetiapine suspension formulations with extended shelf life and enhanced bioavailability” (TLC THERAPEUTICS, LLC, priority 2017, dated 2021).
Counter-ions that a name gives are not always drawn. Like-named read-outs stand apart in the source and are kept apart here.

Key:
[1] = due to extensive first-pass metabolism; cited from earlier work

In the case of `OCCOCCN1CCN(C2=Nc3ccccc3Sc3ccccc32)CC1` [quetiapine fumarate, 2-[2-(4-dibenzo [b,f][1,4]thiazepin-11-yl-1-piperazinyl)ethoxy]-ethanol fumarate (2:1)], the oral bioavailability [1] is listed as “poor”, the solubility (pH 2) is listed as 1.499 g/5 ml and the solubility (pH 3) is listed as 952.1 mg/5 ml.
